Read-outs that look alike come from different tables or passages of the source.
Legend:
[1] = target: T1, bradykinin receptor 1 (B1R) of the rat (Rattus norvegicus, UniProt P97583); assay: Functional study on the bradykinin receptor 1 (B1R), rat: FLIPR Ca2+ influx assay; assay type: cell-based
T1 construct: expressed in transfected cells; host or cells: CHO K1 cells
T1 sequence (P97583 1-337): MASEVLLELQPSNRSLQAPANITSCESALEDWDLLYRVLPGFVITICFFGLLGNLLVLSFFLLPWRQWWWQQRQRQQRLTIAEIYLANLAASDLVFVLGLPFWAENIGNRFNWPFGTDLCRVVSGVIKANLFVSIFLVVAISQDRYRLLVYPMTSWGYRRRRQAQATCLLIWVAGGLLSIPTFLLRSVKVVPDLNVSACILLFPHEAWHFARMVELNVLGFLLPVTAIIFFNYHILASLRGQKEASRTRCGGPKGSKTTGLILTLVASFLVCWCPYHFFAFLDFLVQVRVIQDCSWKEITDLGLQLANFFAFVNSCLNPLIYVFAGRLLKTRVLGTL
Summary of the method: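 CHO K1 cells stably expressing rat B1R, Fluo-4-loaded, read on FLIPR (ex 488/em 540 nm, peak fluorescence). Test substances added first (agonism vs 10 μM Des-Arg9-bradykinin), then after 10-20 min Des-Arg9-bradykinin at EC80; % inhibition and IC50 from concentration series, n=2-3, N≥2.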

human μ-opiate receptor = target: T2, human μ-opiate receptor (Homo sapiens, UniProt P35372); assay: Affinity for the human μ-opiate receptor ([3H]-naloxone displacement, SPA); conditions: test substance 1 μmol/l, inhibition of specific [3H]-naloxone binding, CHO-K1 receptor membrane preparation; for inhibition at 1 µM: read-out: μ-Opioid receptor [1 μM] % inhibition
T2 construct: purchased PerkinElmer Life Sciences, Zaventem, Belgium RB-HOM; host or cells: CHO-K1 cells (membrane preparation)
T2 sequence (P35372 whole entry): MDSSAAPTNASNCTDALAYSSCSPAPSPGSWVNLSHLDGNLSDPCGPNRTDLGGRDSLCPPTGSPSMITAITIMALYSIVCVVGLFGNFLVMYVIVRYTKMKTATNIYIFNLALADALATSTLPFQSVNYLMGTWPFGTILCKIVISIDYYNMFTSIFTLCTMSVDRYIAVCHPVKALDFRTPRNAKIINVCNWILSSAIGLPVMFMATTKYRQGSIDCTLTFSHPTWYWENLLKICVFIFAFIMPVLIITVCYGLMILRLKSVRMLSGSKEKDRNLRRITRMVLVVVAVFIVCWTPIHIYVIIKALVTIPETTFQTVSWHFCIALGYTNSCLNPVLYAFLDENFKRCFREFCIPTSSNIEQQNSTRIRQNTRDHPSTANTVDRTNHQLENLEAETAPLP
Description: Studies of the Effectiveness of the Compounds According to the Invention Method for determining the affinity for the human μ-opiate receptor
The receptor affinity for the human μ-opiate receptor is determined in a homogeneous batch on microtitre plates. To this end, serial dilutions of the substances to be tested are incubated for 90 minutes at room temperature with a receptor membrane preparation (15-40 μg of protein/250 μl of incubation batch) of CHO-K1 cells, which express the human μ-opiate receptor (RB-HOM receptor membrane preparation from PerkinElmer Life Sciences, Zaventem, Belgium), in the presence of 1 nmol/l of the radioactive ligand [^3H]-naloxone (NET719, PerkinElmer Life Sciences, Zaventem, Belgium) and 1 mg of WGA-SPA beads (wheatgerm agglutinin SPA beads from Amersham/Pharmacia, Freiburg, Germany) in a total volume of 250 μl. The incubation buffer used is 50 mmol/l of Tris-HCl supplemented with 0.06 wt. % bovine serum albumin. In order to determine non-specific binding, 100 μmol/l of naloxone is additionally added. When the ninety-minute incubation time has ended, the microtitre plates are centrifuged off for 20 minutes at 1000 g and the radioactivity is measured in a β-counter (Microbeta-Trilux, PerkinElmer Wallac, Freiburg, Germany). The percentage displacement of the radioactive ligand from its binding to the human μ-opiate receptor at a concentration of the test substances of 1 μmol/l is determined and stated as the percentage inhibition of specific binding. On the basis of the percentage displacement by different concentrations of the test substances, IC50 inhibitory concentrations, which effect 50% displacement of the radioactive ligand, are calculated. Ki values for the test substances are obtained by conversion by means of the Cheng-Prusoff equation.

[2] = target: T3, human bradykinin receptor 1 (B1R) (Homo sapiens, UniProt P46663); assay: Functional study on the bradykinin receptor 1 (B1R), human: FLIPR Ca2+ influx assay; assay type: cell-based
T3 construct: expressed in transfected cells; host or cells: CHO K1 cells
T3 sequence (P46663 1-353): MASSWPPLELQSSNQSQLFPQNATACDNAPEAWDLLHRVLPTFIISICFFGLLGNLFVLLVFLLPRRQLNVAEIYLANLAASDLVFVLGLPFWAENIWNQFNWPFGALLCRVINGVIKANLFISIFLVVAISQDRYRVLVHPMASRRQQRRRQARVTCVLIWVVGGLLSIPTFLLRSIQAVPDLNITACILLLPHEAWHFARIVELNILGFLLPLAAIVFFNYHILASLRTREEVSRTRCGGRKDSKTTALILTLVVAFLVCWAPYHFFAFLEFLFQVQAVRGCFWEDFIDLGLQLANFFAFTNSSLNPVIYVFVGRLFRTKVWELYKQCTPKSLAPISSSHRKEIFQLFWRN
Summary of the method: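 CHO K1 cells stably expressing human B1R were loaded with Fluo-4, and Ca2+ fluorescence was read on FLIPR (ex 488/em 540 nm). Compound was added first (10 μM for % activation against Lys-Des-Arg9-bradykinin ≥0.5 nM). After 10-20 min, Lys-Des-Arg9-bradykinin was added at EC80 for % inhibition; IC50 came from concentration series, n=2-3, N≥2.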

[3] = test substance 10 μM, CHO K1 cells transfected with rat B1R, Des-Arg9-bradykinin at EC80, Ca2+ influx (Fluo-4, FLIPR)
[4] = test substance 10 μM, CHO K1 cells transfected with human B1R, Lys-Des-Arg9-bradykinin at EC80, Ca2+ influx (Fluo-4, FLIPR)
[5] = test substance 10 μM, CHO K1 cells transfected with rat B1R, Des-Arg9-bradykinin at EC80, Ca2+ influx (Fluo-4, FLIPR), read-out: B1R antagonism, rat [10 μM] % inhibition
[6] = test substance 10 μM, CHO K1 cells transfected with human B1R, Lys-Des-Arg9-bradykinin at EC80, Ca2+ influx (Fluo-4, FLIPR), read-out: B1R antagonism, human [10 μM] % inhibition

| Compound | inhibition at 10 µM [1, 5] [%] | inhibition at 10 µM [2, 6] [%] | further results |
| --- | --- | --- | --- |
| 1-(4-(1-(4-methylpiperazin-1-yl)-3-phenylpropyl)piperidin-1-yl)-2-(1-(3-(trifluoromethyl)phenylsulfonyl)piperidin-2-yl)ethanone [Example 112] |  |  | B1R antagonism, rat [10 μM] % inhibition [1, 3]: 61%; μ-Opioid receptor [1 μM] % inhibition (human μ-opiate receptor): 28%; B1R antagonism, human [10 μM] % inhibition [2, 4]: 90% |
| 3-(1-(4-chloro-2,5-dimethylphenylsulfonyl)piperidin-2-yl)-1-(4-((4-methyl-piperazin-1-yl)(phenyl)methyl)piperidin-1-yl)propan-1-one [Example 122] |  |  | B1R antagonism, rat [10 μM] % inhibition [1, 3]: 40%; μ-Opioid receptor [1 μM] % inhibition (human μ-opiate receptor): 47%; B1R antagonism, human [10 μM] % inhibition [2, 4]: 98% |
| 4-(Dimethylaminophenylmethyl)piperidin-1-carboxylic acid {3-[(4-methoxy-2,3,6-trimethylbenzenesulfonyl)methylamino]propyl}amide [Example 4] |  |  | B1R antagonism, rat [10 μM] % inhibition [1, 3]: 95%; μ-Opioid receptor [1 μM] % inhibition (human μ-opiate receptor): 100%; B1R antagonism, human [10 μM] % inhibition [2, 4]: 54.8% |
| COc1cc(C)c(S(=O)(=O)N(C)CCCNC(=O)NC2CCC(C(c3ccccc3)N(C)C)CC2)c(C)c1C (centres unmarked) [Example 1, N—(3-{3-[4-(Dimethylaminophenylmethyl)cyclohexyl]ureido}propyl)-4-methoxy-2,3,6,N-tetramethylbenzenesulfonamide] | 56 | 71.5 | inhibition at 1 µM (human μ-opiate receptor): 94% |
| COc1cc(C)c(S(=O)(=O)N(C)CCCNC(=O)NCC2CCC(C(c3ccccc3)N(C)C)CC2)c(C)c1C (centres unmarked) [Example 2] |  |  | B1R antagonism, rat [10 μM] % inhibition [1, 3]: 43%; μ-Opioid receptor [1 μM] % inhibition (human μ-opiate receptor): 97%; B1R antagonism, human [10 μM] % inhibition [2, 4]: 55.6% |
| COc1cc(C)c(S(=O)(=O)N(C)CCCNC(=O)NC2CCC(C(c3ccccc3)N3CCCC3)CC2)c(C)c1C (centres unmarked) [Example 3, 4-Methoxy-2,3,6,N-tetramethyl-N—(3-{3-[4-(phenylpyrrolidin-1-ylmethyl) -cyclohexyl]-ureido}propyl)benzenesulfonamide] | 58 | 80.8 | inhibition at 1 µM (human μ-opiate receptor): 71% |
| CN(C)C(c1ccc(Cl)cc1)C1CCC(CCNC(=O)c2ccccc2N(C)S(=O)(=O)c2ccc(Cl)c(Cl)c2)CC1 (centres unmarked) [Example 43, N-(2-{4-[(4-chloro-phenyl)-dimethylamino-methyl]-cyclohexyl}-ethyl)-2-[(3,4-dichloro-benzenesulfonyl)-methyl-amino]-benzamide] | 11 | 28.9 |  |
| CN(C)C(c1cccc(F)c1)C1CCC(CCNC(=O)c2ccccc2N(C)S(=O)(=O)c2ccc(Cl)c(Cl)c2)CC1 (centres unmarked) [Example 44, 2-[(3,4-dichloro-benzenesulfonyl)-methyl-amino]-N-(2-{4-[dimethylamino-(3-fluoro-phenyl)-methyl]-cyclohexyl}-ethyl)-benzamide] | 18 | 46.5 |  |
| CN(C)C(c1ccc(F)cc1)C1CCC(CCNC(=O)c2ccccc2N(C)S(=O)(=O)c2ccc(Cl)c(Cl)c2)CC1 (centres unmarked) [Example 45, 2-[(3,4-dichloro-benzenesulfonyl)-methyl-amino]-N-(2-{4-[dimethylamino-(4-fluoro-phenyl)-methyl]-cyclohexyl}-ethyl)-benzamide] | 26 | 75.7 |  |
| O=C1NCCN(S(=O)(=O)c2ccc(Cl)cc2Cl)C1CC(=O)N1CCC(C(c2ccccc2)N2CCOCC2)CC1 (centres unmarked) [Example 62, 4-(2,4-dichloro-benzenesulfonyl)-3-{2-[4-(morpholin-4-yl-phenyl-methyl)piperidin-1-yl]-2-oxo-ethyl}-piperazin-2-one] | 27 |  | inhibition at 1 µM (human μ-opiate receptor): 4% |
| CN(C)C(c1ccccc1)C1CCC(NC(=O)C2Cc3ccccc3N2S(=O)(=O)c2ccc(Cl)c(Cl)c2)CC1 (centres unmarked) [Example 91, 1-(3,4-dichlorophenylsulfonyl)-N-(4-((dimethylamino)(phenyl)methyl)cyclohexyl)indoline-2-carboxamide] |  |  | inhibition at 10 µM ([1]; CHO-K1, read-out: B1R antagonism, rat [10 μM] % inhibition): 8%; inhibition at 10 µM ([2]; CHO-K1, read-out: B1R antagonism, human [10 μM] % inhibition): 17.8% |
| CN(C)C(c1cccc(F)c1)C1CCC(NC(=O)C2Cc3ccccc3N2S(=O)(=O)c2ccc(Cl)c(Cl)c2)CC1 (centres unmarked) [Example 92, 1-(3,4-dichlorophenylsulfonyl)-N-(4-((dimethylamino)(3-fluorophenyl)methyl)cyclohexyl)indoline-2-carboxamide] | -13 | 26 |  |
| CN(C)C(CCc1ccccc1)C1CCC(NC(=O)C2Cc3ccccc3N2S(=O)(=O)c2ccc(Cl)c(Cl)c2)CC1 (centres unmarked) [Example 93, 1-(3,4-dichlorophenylsulfonyl)-N-(4-(1-(dimethylamino)-3-phenylpropyl)cyclohexyl)indoline-2-carboxamide] | -24 | 15.5 |  |
| CN(C)C(c1ccccc1)C1CCC(CNC(=O)C2Cc3ccccc3N2S(=O)(=O)c2ccc(Cl)c(Cl)c2)CC1 (centres unmarked) [Example 95, 1-(3,4-dichlorophenylsulfonyl)-N-((4-((dimethylamino)(phenyl)methyl)cyclohexyl)methyl)indoline-2-carboxamide] | -15 | 18.6 |  |
| CN(C)C(CCc1ccccc1)C1CCC(CCNC(=O)C2Cc3ccccc3N2S(=O)(=O)c2ccc(Cl)c(Cl)c2)CC1 (centres unmarked) [Example 97, 1-(3,4-dichlorophenylsulfonyl)-N-(2-(4-(1-(dimethylamino)-3-phenylpropyl)cyclohexyl)ethyl)indoline-2-carboxamide] | 11 | 16 |  |
| CN(C)C(c1ccccc1)C1CCC(CCNC(=O)Cc2ccccc2N(C)S(=O)(=O)c2ccc(Cl)c(Cl)c2)CC1 (centres unmarked) [Example 98, 2-(2-(3,4-dichloro-N-methylphenylsulfonamido)phenyl)-N-(2-(4-((dimethylamino)(phenyl)methyl)cyclohexyl)ethyl)acetamide] | -8 | 66.8 |  |
| CN(C)C(CCc1ccccc1)C1CCC(CCNC(=O)Cc2ccccc2N(C)S(=O)(=O)c2ccc(Cl)c(Cl)c2)CC1 (centres unmarked) [Example 99, 2-(2-(3,4-dichloro-N-methylphenylsulfonamido)phenyl)-N-(2-(4-(1-(dimethylamino)-3-phenylpropyl)cyclohexyl)ethyl)acetamide] | -7 | 83.3 |  |
| N-(3-(4-((4-fluorophenyl)(4-methylpiperazin-1-yl)methyl)piperidin-1-yl)-3-oxo-1-phenylpropyl)naphthalene-2-sulfonamide [Example 117] |  |  | μ-Opioid receptor [1 μM] % inhibition (human μ-opiate receptor): 47% |
